From a compilation of properties of binary mixtures (doi:10.1016/j.molliq.2015.11.032)

Test: xn = mol fraction of the nth substance listed
Conditions: 101 kPa

With `[Cl-].c1ccc(C[P+](c2ccccc2)(c2ccccc2)c2ccccc2)cc1` + OCC(O)CO the viscosity (296.84 K, x2 = 0.9412) was 1359.8 mPa·s, the electrical conductivity (298.1 K, x2 = 0.9412) was 0.007 S/m and the viscosity (301.89 K, x2 = 0.9412) was 943 mPa·s. The viscosity (312.13 K, x2 = 0.9412) was 459 mPa·s, the electrical conductivity (313.32 K, x2 = 0.9412) was 0.0174 S/m and the viscosity (317.31 K, x2 = 0.9412) was 306 mPa·s. It also gave an electrical conductivity (328.03 K, x2 = 0.9412) of 0.0419 S/m, a viscosity (332.72 K, x2 = 0.9412) of 110.5 mPa·s and a viscosity (353.18 K, x2 = 0.9412) of 59.49 mPa·s.

Compound `C[P+](c1ccccc1)(c1ccccc1)c1ccccc1.[Br-]` + OCC(O)CO has a viscosity (296.97 K, x2 = 0.75) of 2771 mPa·s, a viscosity (301.89 K, x2 = 0.75) of 1657 mPa·s and a viscosity (306.95 K, x2 = 0.75) of 1002.8 mPa·s. The viscosity (312 K, x2 = 0.75) was 612 mPa·s, the viscosity (317.18 K, x2 = 0.75) was 382 mPa·s and the viscosity (353.18 K, x2 = 0.75) was 59.5 mPa·s.
